Measured values: PubChem BioAssay (NCI)
Where “and” joins values, the source holds several entries; their conditions need not be identical. Identical values can stand only once.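 Results reflect a 48-hour exposure of cells in 96-well plates to compound at five concentrations. GI50 marks 50% less growth. The concentration for full growth arrest is given as TGI.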

Key:
Experiment in all cases: NCI tumour cell line growth inhibition, 48 h
786-0 renal = system: 786-0 renal
A498 renal = system: A498 renal
ACHN renal = system: ACHN renal
BT-549 breast = system: BT-549 breast
CAKI-1 renal = system: CAKI-1 renal
COLO 205 colon = system: COLO 205 colon
DU-145 prostate = system: DU-145 prostate
EKVX NSCLC = system: EKVX NSCLC
HCC-2998 colon = system: HCC-2998 colon
HCT-116 colon = system: HCT-116 colon
HCT-15 colon = system: HCT-15 colon
HL-60(TB) leukemia = system: HL-60(TB) leukemia
HOP-62 NSCLC = system: HOP-62 NSCLC
HS 578T breast = system: HS 578T breast
HT29 colon = system: HT29 colon
IGROV1 ovarian = system: IGROV1 ovarian
K-562 leukemia = system: K-562 leukemia
KM12 colon = system: KM12 colon
LOX IMVI melanoma = system: LOX IMVI melanoma
MALME-3M melanoma = system: MALME-3M melanoma
MCF7 breast = system: MCF7 breast
MDA-MB-231 breast = system: MDA-MB-231 breast
MDA-MB-435 = system: MDA-MB-435
MDA-N = system: MDA-N
MOLT-4 leukemia = system: MOLT-4 leukemia
NCI-H226 lung = system: NCI-H226 lung
NCI-H23 lung = system: NCI-H23 lung
NCI-H460 lung = system: NCI-H460 lung
NCI-H522 lung = system: NCI-H522 lung
NCI/ADR-RES ovarian = system: NCI/ADR-RES ovarian
OVCAR-3 ovarian = system: OVCAR-3 ovarian
OVCAR-4 ovarian = system: OVCAR-4 ovarian
OVCAR-5 ovarian = system: OVCAR-5 ovarian
OVCAR-8 ovarian = system: OVCAR-8 ovarian
PC-3 prostate = system: PC-3 prostate
RPMI-8226 leukemia = system: RPMI-8226 leukemia
RXF 393 renal = system: RXF 393 renal
SF-268 CNS = system: SF-268 CNS
SF-295 CNS = system: SF-295 CNS
SK-MEL-2 melanoma = system: SK-MEL-2 melanoma
SK-MEL-28 melanoma = system: SK-MEL-28 melanoma
SK-MEL-5 melanoma = system: SK-MEL-5 melanoma
SN12C renal = system: SN12C renal
SNB-19 CNS = system: SNB-19 CNS
SNB-75 CNS = system: SNB-75 CNS
SR leukemia = system: SR leukemia
SW-620 colon = system: SW-620 colon
T-47D breast = system: T-47D breast
TK-10 renal = system: TK-10 renal
U251 CNS = system: U251 CNS
UACC-257 melanoma = system: UACC-257 melanoma
UACC-62 melanoma = system: UACC-62 melanoma
UO-31 renal = system: UO-31 renal

For `CC(C)=CCC/C(C)=C\CCC1(C)OC(=O)C2CC21` (configuration not stated), the GI50 (786-0 renal) was > 100 µM and 17.5 µM, the TGI (786-0 renal) was > 100 µM and 32.7 µM and the TGI (A498 renal) was > 100 µM. For the same compound, the GI50 (ACHN renal) was > 100 µM and 25.1 µM, the TGI (ACHN renal) was > 100 µM and 59.8 µM and the TGI (BT-549 breast) was > 100 µM. For the same compound, the TGI (CAKI-1 renal) was > 100 µM and 43 µM, the TGI (COLO 205 colon) was > 100 µM and the TGI (DU-145 prostate) was > 100 µM. The GI50 (EKVX NSCLC) was > 100 µM and 40 µM, the TGI (EKVX NSCLC) was > 100 µM and the TGI (HCC-2998 colon) was > 100 µM. For the same compound, the GI50 (HCT-116 colon) was 52.3 µM and 16.6 µM, the TGI (HCT-116 colon) was > 100 µM and 31.6 µM and the GI50 (HCT-15 colon) was 83.8 µM and 24.7 µM. The TGI (HCT-15 colon) was > 100 µM, the TGI (HL-60(TB) leukemia) was 49.9 µM and 26.6 µM and the TGI (HOP-62 NSCLC) was > 100 µM. For the same compound, the GI50 (HS 578T breast) was > 100 µM and 36.5 µM, the TGI (HS 578T breast) was > 100 µM and the GI50 (HT29 colon) was 72.8 µM and 34.1 µM. The TGI (HT29 colon) was > 100 µM, the GI50 (IGROV1 ovarian) was > 100 µM and 18.2 µM and the TGI (IGROV1 ovarian) was > 100 µM and 37.2 µM. For the same compound, the TGI (K-562 leukemia) was 48.4 µM and 40.5 µM, the GI50 (KM12 colon) was 71.2 µM and 24.9 µM and the TGI (KM12 colon) was > 100 µM and 62.8 µM. For the same compound, the TGI (LOX IMVI melanoma) was 81.8 µM and 29 µM, the TGI (MALME-3M melanoma) was > 100 µM and the GI50 (MCF7 breast) was 64.9 µM and 21.6 µM. The TGI (MCF7 breast) was > 100 µM and 52.6 µM, the TGI (MDA-MB-231 breast) was > 100 µM and the GI50 (MDA-MB-435) was 73.9 µM and 23.1 µM. The TGI (MDA-MB-435) was > 100 µM and 56.7 µM, the GI50 (MDA-N) was > 100 µM and 23.8 µM and the TGI (MDA-N) was > 100 µM and 85.1 µM. The TGI (MOLT-4 leukemia) was 50 µM and 35 µM, the GI50 (NCI-H226 lung) was 48.4 µM and 18.8 µM and the TGI (NCI-H226 lung) was > 100 µM and 42.6 µM. The TGI (NCI-H23 lung) was > 100 µM, the GI50 (NCI-H460 lung) was 41.7 µM and 14 µM and the TGI (NCI-H460 lung) was > 100 µM and 27 µM. The GI50 (NCI-H522 lung) was 52.4 µM and 19.2 µM, the TGI (NCI-H522 lung) was > 100 µM and 47.1 µM and the TGI (NCI/ADR-RES ovarian) was > 100 µM. The TGI (OVCAR-3 ovarian) was > 100 µM, the GI50 (OVCAR-4 ovarian) was > 100 µM and 19.5 µM and the TGI (OVCAR-4 ovarian) was > 100 µM and 42.6 µM. For the same compound, the TGI (OVCAR-5 ovarian) was > 100 µM, the GI50 (OVCAR-8 ovarian) was 71.6 µM and 20.3 µM and the TGI (OVCAR-8 ovarian) was > 100 µM and 45.5 µM. For the same compound, the TGI (PC-3 prostate) was > 100 µM and 85.2 µM, the TGI (RPMI-8226 leukemia) was 68.1 µM and 44.2 µM and the TGI (RXF 393 renal) was 92.3 µM. The TGI (SF-268 CNS) was > 100 µM, the GI50 (SF-295 CNS) was > 100 µM and 49.8 µM and the TGI (SF-295 CNS) was > 100 µM. The TGI (SK-MEL-2 melanoma) was > 100 µM, the GI50 (SK-MEL-28 melanoma) was > 100 µM and 37.5 µM and the TGI (SK-MEL-28 melanoma) was > 100 µM. The TGI (SK-MEL-5 melanoma) was > 100 µM, the GI50 (SN12C renal) was > 100 µM and 26.4 µM and the TGI (SN12C renal) was > 100 µM and 64.2 µM. For the same compound, the TGI (SNB-19 CNS) was > 100 µM, the TGI (SNB-75 CNS) was > 100 µM and the GI50 (SR leukemia) was 24.3 µM and 6.4 µM. The TGI (SR leukemia) was > 100 µM and 37.2 µM, the GI50 (SW-620 colon) was 84.1 µM and 33.8 µM and the TGI (SW-620 colon) was > 100 µM. The TGI (T-47D breast) was > 100 µM, the TGI (TK-10 renal) was > 100 µM and the GI50 (U251 CNS) was 51.5 µM and 24.1 µM. The TGI (U251 CNS) was > 100 µM and 61.4 µM, the TGI (UACC-257 melanoma) was > 100 µM and the GI50 (UACC-62 melanoma) was > 100 µM and 34.4 µM. The TGI (UACC-62 melanoma) was > 100 µM and the TGI (UO-31 renal) was > 100 µM.
